Data from patent publication US10058097B2, “Methods to increase corn productivity” (Valent BioSciences Corporation, priority 2016, dated 2018).

Key:
Type in all cases: in vivo
[1] = tested on: corn plants; assay: Greenhouse study: growth of corn after V3 spray with GA3 or GB, nine days; conditions: non-stressed greenhouse; spray at V3; GA3 120 mg/liter, GB 3000 mg/liter; n = 7
Description: In several of the following examples, corn was grown in greenhouse conditions, which are defined as follows. Seeds of a commercial hybrid variety were sown in Pro-Mix® BX (Pro-Mix is a registered trademark of Premier Horticulture Ltd.) with the addition of Osmocote (14-14-14) and gypsum in three-liter pots. Greenhouses were kept at 25±3° C. under a 16:8 hour photoperiod, with illumination at canopy level of ˜250 μmoles m^−2s^−1. Corn was typically fertigated with Peters 21-5-20+micronutrients, calcium ammonium nitrate and magnesium sulfate. Typical growth rates for corn under these conditions ranged from 4-5 cm/day.
In most greenhouse studies, spray applications were made. These applications were made in a track sprayer outfitted with a 4001E Teejet® nozzle (Teejet is available from and a registered trademark of Spraying Systems Co., Glendale Heights, Ill., USA) and applied at 40 psi. Although application volumes did vary between some studies, generally, 30 gallons/acre of spray solution was applied. Following spray applications, plants were returned to the greenhouse. Typically, experiments were blocked according to plant size, and a randomized complete block design (RCB) was used.
In a greenhouse study conducted in Long Grove, Ill., corn plants were sprayed at V3 stage with solutions containing a non-ionic surfactant (0.25%, v/v) at 30 gallons of spray solution/acre and growth was followed for nine days.
(§1) Synergy was determined using the following formula, in which a synergy factor is calculated by the Abbott method: % Cexp=A+B−(AB/100), here % Cexp is the expected efficacy and “in which A and B are the increase in growth (or resistance to stress) levels given by the single [plant growth regulators]. If the ratio between the experimentally observed efficacy of the mixture Cobs and the expected efficacy of the mixture is greater than 1, synergistic interactions are present in the mixture” (Gisi, Synergistic Interaction of Fungicides in Mixtures, The American Phytopathological Society, 86:11, 1273-1279, 1996).
Based on a conservative approach, synergy was determined to be present at ratios of ≥1.10. When grown under non-stressed conditions, GA3 growth was synergized by the addition of 3,000 mg/liter glycine betaine (“GB”), with a synergy factor of 1.65 for growth and 1.68 for growth rate while dry weight/plant was not synergistic with a synergy factor of 0.95.

[2] = tested on: greenhouse-grown maize; assay: Leaf chlorophyll by SPAD meter, GA3 dose +/- GB; conditions: without or with GB 10000 mg/liter
Description: In the same study, leaf chlorophyll was monitored by measurements with a SPAD meter (Minolta Model 502; Ramsey, N.J.). In this study, the chlorophyll level in the most recently fully-expanded leaf was measured at five different points and the results averaged.

[3] = tested on: corn plants; assay: Chilling stress study (10° C. for five days) after spray with GA3 or GB; conditions: chilling stress at 10° C. for five days; GA3 120 mg/liter, GB 3000 mg/liter; n = 7 plants
Description: In stress studies, plants were subjected to various stresses. In cold stress studies, after spraying, plants were grown in the greenhouse for an additional 48 hours before being measured and moved to a CMP6050 CONVIRON® chamber kept at 10° C. (Conviron is a registered trademark of Controlled Environments Limited Corporation). Illumination was at ˜225 μMoles, and light:dark conditions were on a 12:12 hour photoperiod. After 120 hours of chilling, plants were removed from the cold, measured, and returned to the greenhouse for 48 hours prior to harvest.
as §1
In a greenhouse and growth room study conducted in Long Grove, Ill., corn plants of a commonly grown hybrid were subjected to the following stress regimen: at two days post-foliar application, plants were moved into a controlled environment chamber, where the temperature was maintained at 10° C. with a 12:12 hour photoperiod for five days. At the end of the chilling period, the corn was moved back to the greenhouse for two days before destructive harvest.

[4] = tested on: potted corn plants; assay: Chronic drought stress greenhouse study, potted corn, 14 days; conditions: 20 Percent Volumetric Water Content, 120 mg/liter GA3, 3000 mg/liter GB, n = 5
Description: In drought stress studies, corn plants were sprayed at the V4 stage with solutions containing a non-ionic surfactant (0.25%, v/v) at 30 gallons of spray solution/acre and growth was determined by change in height from time of treatment or fresh and dry shoot weight measurements 14 days later.
In greenhouse drought stress studies, corn plants were treated and subsequently watered with an automated irrigation system that maintained the soil moisture in the pots at 45% or 20% volumetric water content (“VWC”). Plants set to 20% after treatment took about 4 days without the automated system adding water to those pots to reach 20% VWC and then the automated system added water as needed to maintain 20% VWC. Total soil moisture capacity was 45% VWC and 20% VWC represented drought stress conditions. This would be considered chronic stress, as a lower level of VWC was maintained throughout the experiment after treatment.

For `C=C1C[C@]23C[C@@]1(O)CC[C@H]2[C@@]12C=C[C@H](O)[C@@](C)(C(=O)O1)[C@H]2[C@@H]3C(=O)O` [GA3, gibberellic acid], the “Dry Weight/Plant” value [1] was 2.92 g, the “Growth Rate” value [1] was 4.76 cm/day and the “Growth over 9 days” value [1] was 42.9 cm. The “Chlorophyll (SPAD reading) 14 days” value ([2]; GA3 30 mg/liter) was 33.1 SPAD reading, the “Chlorophyll (SPAD reading) 14 days” value ([2]; GA3 60 mg/liter) was 32.9 SPAD reading and the “Chlorophyll (SPAD reading) 14 days” value ([2]; GA3 120 mg/liter) was 31.6 SPAD reading. The “Chlorophyll (SPAD reading) 14 days” value ([2]; GA3 240 mg/liter) was 31.1 SPAD reading, the “Growth Rate” value [3] was 2.38 cm/day and the “Growth over 9 days” value [3] was 21.43 cm. For the same compound, the “Leaf Area of L1-L5” value [3] was 324.24 cm^2, the “Percent Dry Weight of Drought Stressed Control” value [4] was 103.32% and the “Percent Fresh Weight of Drought Stressed Control” value [4] was 106.11%.
